Assay results taken from paper PMC13223435, “Synthesis and Antiproliferative Activity against Melanoma Cells of New Heterocyclic Hybrids Based on Pyridine and Pyrimidine Scaffolds” (Current Medicinal Chemistry, 2025).

Tests used:
Format in all cases: cell-based
[1] = tested on: human dermal fibroblasts (HDF); test: WST-1 assay on non-tumor cells (selectivity)
From the text: (§1) The A375 malignant melanoma cell line (ECACC 88113005, Salisbury, UK) was procured from the European Collection of Authenticated Cell Cultures (ECACC). The primary culture of human dermal fibroblasts (HDF) was derived from skin according to the protocol approved by the Ethical Committee of Pomeranian Medical University in Szczecin (KB-0012/02/18). The detailed protocol of fibroblast isolation, authentication, and cell culture conditions was previously described. Both cell lines were cultivated in a humidified incubator under conditions of 5% CO2 and a temperature of 37°C, using Dulbecco’s modified Eagle’s medium (DMEM) with 4500 mg/L glucose (Sigma-Aldrich Merck Group, St. Louis, MO, USA) enriched with 10% heat-inactivated fetal bovine serum (FBS, EURx, Gdańsk, Poland), 2 mM L-glutamine (Sigma-Aldrich Merck Group, St. Louis, MO, USA), and penicillin-streptomycin solution (Sigma-Aldrich Merck Group, St. Louis, MO, USA). Regular assessments for the presence of mycoplasma were conducted using the MycoAlert® Mycoplasma Detection Kit (Lonza, Rockland, ME, USA).
(§2) The evaluation of the antiproliferative activity of the compounds was performed using the Cell Proliferation Reagent WST-1 assay (Roche, Germany). This assay relies on the reduction of tetrazolium salt to formazan, with the final amount of formazan proportional to the number of viable cells. In our study, A375 cells (2×10^3) and HDF (3×10^3) were initially seeded into 96-well plates and cultured in a humidified atmosphere of 5% CO2 at 37°C. 24 hours later, the culture medium was replaced with a medium containing the tested compounds for a 48-hour incubation period at specified final concentrations. […] For control purposes, cells without the tested compounds, which contained only the vehicle (DMSO), were used. Additionally, a blank sample consisting of tested compounds in a medium (without cells) was included. After the 48-hour incubation period, the WST-1 reagent was introduced and allowed to incubate with the cells for 30 minutes. The absorbance was subsequently measured at 450 nm with background correction at 620 nm using a microplate reader (Infinite 200 Pro, Tecan, Männedorf, Switzerland). Cell viability was calculated according to the following formula: [(Atest–Ablank)/ (Acontrol − Ablank)] × 100%. These measurements were conducted in triplicate for at least three independent experiments.
For that purpose, non-tumor HDF cells were used and the concentrations of tested compounds were increased to 200 µM (0.4% DMSO) and 500 µM (1% DMSO). Appropriate controls were prepared for higher concentrations of DMSO.

[2] = tested on: A375 cells; test: Live-cell imaging (time-lapse microscopy); conditions: 48 h
Method: For live-cell imaging, A375 cells were seeded into 96-well plates at a density of 2×10^3 cells per well and allowed to grow for 24 h before imaging. Next, the cell culture medium was carefully removed, and new medium containing 16b (at 2 µM and 10 µM) and 29 (at 5 µM and 10 µM) was added and the cell culture plate was placed in the imaging chamber of Agilent BioTek Lionheart FX automated microscope (Agilent Technologies, Inc., Santa Clara, CA, USA) equipped with a Plan Fluorite 20x/0.75 objective (Olympus, Nishi-Shinjuki, Tokyo, Japan), and a FLIR Blackfly BFLY-U3-23S6M camera (Teledyne FLIR, Wilsonville, OR, USA). The temperature in the imaging chamber was set to 37°C and CO2 level to 5%. The bright-field images were acquired every 5 minutes for 48 hours.

[3] = tested on: A375 cells; test: Annexin V-PE/7-AAD apoptosis assay (Muse); conditions: 48 h, early and late apoptotic
Method: In this study, A375 cells were initially seeded into 24-well plates at a density of 1×10^4 cells per well. After 24 hours, the cell culture medium was carefully removed, and a new medium containing 16b and 29 at varying final concentrations (1, 5, and 10 µM) was added, followed by an additional 48-hour incubation. Cells in a medium containing 0.2% DMSO served as the control group. After the treatment period, cells were washed with phosphate-buffered saline (PBS), and both the cell medium and PBS wash were retained. The cells were then detached using trypsin and centrifuged. The resulting cell pellet was suspended in a fresh medium after discarding the supernatant. An equivalent volume of Muse Annexin V & Dead Cell Reagent (Luminex Corporation, Austin, TX, USA) was added and thoroughly mixed through repeated pipetting. The staining procedure was conducted for 20 minutes at room temperature in the absence of light. The Muse Cell Analyzer (Luminex Corporation, Austin, TX, USA) was utilized for analysis. This assay detects phosphatidylserine (PS) on apoptotic cell surfaces using annexin V-PE (phycoerythrin) binding. A 7-AAD (7-aminoactinomycin D) marker was used to assess cell membrane integrity. The dual staining approach enabled the identification of four distinct cell groups: viable (Annexin V-PE− and 7-AAD−), early apoptotic (Annexin V-PE+ and 7-AAD−), late apoptotic/dead (Annexin V-PE+ and 7-AAD+), and primarily nuclear debris (Annexin V-PE− and 7-AAD+). The findings were based on at least three separate experimental runs.

[4] = tested on: A375 cells; test: Cell cycle analysis (PI staining, Muse); conditions: 5 h
Method: For cell cycle analysis, A375 cells were initially plated in 6-well plates at a density of 1×10^5 cells per well and allowed to culture for 24 hours. Following this incubation period, the culture medium was replaced with fresh medium containing 16b and 29 at final concentrations of 1, 5, and 10 µM, after which the cells were incubated for an additional 5 hours. For control purposes, cells cultured in a medium containing 0.2% DMSO without treatment were utilized. The experimental procedure involved several steps: initially, the cells were rinsed with PBS, and then collected via trypsinization. The resulting cell pellet underwent another PBS wash before being fixed with 70% cold ethanol (Chempur, Piekary Śląskie, Polska) at -20°C for at least 3 hours. Before analysis, the ethanol-fixed cells were centrifuged, washed again with PBS, and then treated with Muse Cell Cycle Reagent (Luminex Corporation, Austin, TX, USA), which includes propidium iodide (PI) and RNAse. This staining process was carried out for 30 minutes at room temperature in the absence of light. The assay relies on PI-based staining of DNA content to differentiate and quantify the percentage of cells in the G0/G1, S, and G2/M phases of the cell cycle. The analysis was performed using the Muse Cell Analyzer (Luminex Corporation, Austin, TX, USA). The obtained findings were derived from a minimum of three independent experiments.

[5] = tested on: melanoma A375 cells; test: WST-1 antiproliferative assay; conditions: Homo sapiens, A-375
From the text: as §1, §2
In the screening step, 10 µM solutions of all 33 compounds were tested on A375 cells. […] Selected compounds (2c, 18e, 16b, 29) were tested at concentrations of 0.1, 1, 10, 50, and 100 µM. The IC50 values were determined using an online calculator (AAT Bioquest, Inc., Quest Graph™ IC50 Calculator (v.1). Retrieved from https://www.aatbio.com/tools/IC50-calculator-v1, accessed on: 2022, December 12).

Question: How did the IC50 ([1]; Fibroblast, 48 hours of treatment, normal human dermal fibroblasts) turn out when `COc1cc(Cn2cc(-c3cccs3)ccc2=S)cc(OC)c1OC` [Compound 16b] was run?
Answer: The IC50 was 120 ± 8.42 µM.

Question: And the “Selectivity index (SI)” value ([1]; IC50 normal cells (HDF)/IC50 cancer cell (A375))?
Answer: Its value is 65.08.

Question: What about the “time-lapse observation of A375 cells” value ([2]; 2 µM) of the same compound?
Answer: Its value is “cells also divided, but less effectively, divisions lasted longer, and finally, the confluence was lower than that in the control well”.

Question: What about the “time-lapse observation of A375 cells” value ([2]; 10 µM) of the same compound?
Answer: Its value is “arrested mitosis resulted in mitotic slippage, leading to apoptosis or formation of binucleated cells”.

Question: What about the “percentage of annexin-positive cells” value ([3]; 5 µM) of the same compound?
Answer: The value was 18.43 ± 2.90%.

Question: And the “percentage of annexin-positive cells” value ([3]; 10 µM)?
Answer: Its value is 30.50 ± 1.27%.

Question: And the “percentage of A375 cells in the G2/M phase” value (“percentage of A375 cells” for short) ([4]; 1 µM)?
Answer: Its value is 33.79 ± 0.46%.

Question: What about the “percentage of A375 cells” value ([4]; 5 µM) of the same compound?
Answer: The value was 39.33 ± 5.27%.

Question: And the “percentage of A375 cells” value ([4]; 10 µM)?
Answer: The value was 44.52 ± 4.00%.

Question: And the activity at 10 µM ([5]; 10 µM, 48 h of treatment, A375, read-out: Cell proliferation (% control))?
Answer: Its activity at 10 µM is 42.8 ± 22.9%.

Question: What about the IC50 ([5]; 48 hours of treatment) of the same compound?
Answer: The IC50 was 1.85 ± 0.44 µM.
